Assay results published in patent publication US20250154135A1, “M-CHOLINE RECEPTOR AGONIST COMPOUND, PREPARATION METHOD THEREFOR AND USE THEREOF” (NANJING GRITPHARMA CO., LTD., priority 2022, published 2025).

Experiments:
[1] = test system: rabbit pupil; assay: Miosis effect of 0.915% compound solutions in rabbits (Test Example 4); format: in vivo; details: at half of the concentration of the pilocarpine hydrochloride
Protocol: Each rabbit in each group was subjected to single eye drop administration in the left eye, with an administration volume of 100 μL. The pupil and iris diameters of the left eye of the rabbits were measured at time points of −0.5 h (i.e., half an hour before administration), 0.5 h, 3 h, and 4 h relative to administration (observation time points were extended if necessary), with the measurement performed 5 times for each rabbit at each time point. The entire measurement process was completed by the same person.
• Reagents: normal saline (specification: 500 mL: 4.5 g), purchased from Jiangxi Kelun Pharmaceutical Co., Ltd.; • compound 1 and compound 2 (from Nanjing Jiqun Pharmaceutical Technology Co., Ltd.); • 1) a compound 1 solution at a concentration of 0.915% prepared using normal saline; • 2) a compound 2 solution at a concentration of 0.915% prepared using normal saline.
The miosis effects of the 0.915% compound 1 solution and the 0.915% compound 2 solution were determined using the method in Test Example 2, and the determination results are shown in Tables 4-1 and 4-2 below.

[2] = Stability tests on compound starting materials (HPLC related substances); format: physicochemical; details: for (Z-A) impurity A isopilocarpine / (Z-B) impurity B pilocarpic acid / (Z-C) impurity C isopilocarpic acid / Maximum single impurity / Total impurity: starting material
Protocol: Samples: compound 1, compound 2 and pilocarpine hydrochloride starting material solid particles.
High-temperature test: 1 g of each of compound 1, compound 2 and pilocarpine hydrochloride starting materials were taken and placed in an open container inside a constant temperature device at 40° C.; samples were taken at time points of day 0 and day 5, and then tested according to the key stability examination items. The stability of the active pharmaceutical ingredient itself and the trend of changes in stability under the conditions of influencing factor tests were observed.
Strong light irradiation test: 1 g of each of compound 1, compound 2 and pilocarpine hydrochloride starting materials were taken and placed in an open container inside a light irradiation box, with the illumination set at 4500 lx±500 lx; samples were taken at time points of day 0 and day 5, and then tested according to the key stability examination items.
High-humidity test: 1 g of each of compound 1, compound 2 and pilocarpine hydrochloride starting materials was taken and placed in an open container inside a constant humidity closed container at 25° C. and with a relative humidity of 75%±5%; samples were taken at day 0 and day 5, and then tested according to the requirements of the key stability examination items.
According to the records in the European Pharmacopoeia (EP), the key related substances to be examined for pilocarpine include: impurity A isopilocarpine (Z-A), impurity B pilocarpic acid (Z-B), and impurity C isopilocarpic acid (Z-C). The samples taken at different time points from the above high-temperature test, strong light irradiation test and high-humidity test were separately tested using high-performance liquid chromatography to observe the trend of changes in stability under the conditions of the influencing factor tests.
The related substances were determined according to the high-performance liquid chromatography (General Chapter 0512, Chinese Pharmacopoeia, Volume IV, 2020 Edition).
Test sample solution: an appropriate amount of each test sample was precisely weighed, dissolved in water, and diluted to prepare a solution containing 1 mg of test sample per 1 mL.
Chromatographic conditions: octadecyl bonded silica gel was used as a filler [kromasil 100-5-C18 column (4.0 mm×[…]) or a chromatographic column with equivalent performance], 0.679 g/L tetrabutylammonium dihydrogen phosphate-methanol-acetonitrile (885:55:60) (adjusted to pH 7.7 with dilute aqueous ammonia) was used as mobile phase A, and acetonitrile-water (80:20) was used as mobile phase B; gradient elution was performed according to Table 6-1, with a column temperature of 30° C., a flow rate of 1.0 mL/min, a detection wavelength of 220 nm, and a sample injection volume of 20 μL.

[3] = 40° C. and high light irradiation

| (Z-A) impurity A isopilocarpine ([2]; 40° C.-5 days) [%] | (Z-B) impurity B pilocarpic acid ([2]; 40° C.-5 days) [%] | (Z-C) impurity C isopilocarpic acid ([2]; 40° C.-5 days) [%] | Maximum single impurity ([2]; 40° C.-5 days) [%] | Total impurity ([2]; 40° C.-5 days) [%] | (Z-A) impurity A isopilocarpine ([2]; Day 0) [%] | (Z-B) impurity B pilocarpic acid ([2]; Day 0) [%] | (Z-C) impurity C isopilocarpic acid ([2]; Day 0) [%] | Maximum single impurity ([2]; Day 0) [%] | Total impurity ([2]; Day 0) [%] | (Z-A) impurity A isopilocarpine ([2]; Light-5 days (4500 lx)) [%] | (Z-B) impurity B pilocarpic acid ([2]; Light-5 days (4500 lx)) [%] | (Z-C) impurity C isopilocarpic acid ([2]; Light-5 days (4500 lx)) [%] | Maximum single impurity ([2]; Light-5 days (4500 lx)) [%] | Total impurity ([2]; Light-5 days (4500 lx)) [%] | (Z-A) impurity A isopilocarpine ([2]; RH 75%-5 days, 25° C.) [%] | (Z-B) impurity B pilocarpic acid ([2]; RH 75%-5 days, 25° C.) [%] | SMILES | miosis effect compared to pilocarpine hydrochloride [1] | impurity increasing rate compared to pilocarpine hydrochloride starting material [2, 3] | impurity increasing rate compared to pilocarpine hydrochloride starting material ([2]; 5 days, high humidity (RH 75%)) | other results |
| --- | --- | --- | --- | --- | --- | --- | --- | --- | --- | --- | --- | --- | --- | --- | --- | --- | --- | --- | --- | --- | --- |
| 0.365 | 0 | 0 | 0 | 0.365 | 0.328 | 0 | 0 | 0 | 0.328 | 0.329 | 0 | 0 | 0 | 0.329 | 0.310 | 0 | CC[C@@H]1C(=O)OC[C@@H]1Cc1cncn1C [Compound 1] | comparable to the effect of pilocarpine hydrochloride | comparable to those of the pilocarpine hydrochloride starting material | significantly slower than those of the pilocarpine hydrochloride | (Z-C) impurity C isopilocarpic acid ([2]; RH 75%-5 days, 25° C.): 0%; Maximum single impurity ([2]; RH 75%-5 days, 25° C.): 0%; Total impurity ([2]; RH 75%-5 days, 25° C.): 0.331% |
| 0.338 | 0.072 | 0 | 0 | 0.353 | 0.307 | 0 | 0 | 0 | 0.307 | 0.333 | 0.046 | 0 | 0 | 0.339 | 0.311 | 0.116 | CC[C@@H]1C(=O)OC[C@@H]1Cc1cncn1C [Compound 2] | comparable to the effect of pilocarpine hydrochloride | comparable to those of the pilocarpine hydrochloride starting material | significantly slower than those of the pilocarpine hydrochloride | (Z-C) impurity C isopilocarpic acid ([2]; RH 75%-5 days, 25° C.): 0%; Maximum single impurity ([2]; RH 75%-5 days, 25° C.): 0%; Total impurity ([2]; RH 75%-5 days, 25° C.): 0.427% |
